Reference: patent US20240400546A1, “COMPOUNDS AND USES THEREOF” (JANSSEN PHARMACEUTICA NV, priority 2016, published 2024)

What follows are molecules tested against T1, SCD1 (Homo sapiens, UniProt O00767) (assay: Growth inhibition of humanized yeast expressing SCD1 as sole desaturase). Conditions: humanized yeast expressing SCD1.
T1 construct: host or cells: S. cerevisiae ole1Δ strain, plasmid pRS316 with TDH3 promoter and CYC1 terminator
T1 sequence (O00767 1-359): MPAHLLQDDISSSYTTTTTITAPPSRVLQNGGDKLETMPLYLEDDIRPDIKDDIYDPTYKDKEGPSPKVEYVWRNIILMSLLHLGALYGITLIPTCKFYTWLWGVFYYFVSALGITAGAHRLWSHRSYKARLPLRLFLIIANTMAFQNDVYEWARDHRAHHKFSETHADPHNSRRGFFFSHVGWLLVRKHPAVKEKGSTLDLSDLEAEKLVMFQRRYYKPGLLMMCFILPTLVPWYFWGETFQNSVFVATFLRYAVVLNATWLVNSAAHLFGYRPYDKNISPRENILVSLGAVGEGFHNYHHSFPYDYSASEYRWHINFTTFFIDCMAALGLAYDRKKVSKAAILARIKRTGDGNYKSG
Format: cell-based
Experimental: Strain ole1Δ (yeast ole1 deletion mutant) was constructed by deleting OLE1 with NAT-MX6 in BY4741, amplifying the deletion cassette from the genomic DNA of the resulting strain with primers flanking the ORF by 1000 bp upstream and downstream, transforming the resulting deletion cassette into W303 pdr1Δ pdr3Δ, and plating transformants on YPD media containing G418 (200 μg/mL) and nourseothricin (100 μg/mL) with 0.01% TWEEN®-20 and 0.5 mM oleic and palmitoleic acids.
The coding sequence of yeast OLE1 was also cloned into this plasmid). These clones were then transformed into the ole1Δ strain and plated on CSM-Ura media (CSM lacking uracil) with 2% glucose (w/v) and independent colonies were isolated and amplified.
All compound profiling experiments were performed using the same basic protocol. Different genetic backgrounds (e.g., gene deletions) or conditions (e.g., addition of oleic and palmitoleic acid) were replaced as indicated below.
Yeast were cultured using standard techniques in complete synthetic media (CSM) and yeast nitrogen base supplemented with 2% (w/v) carbon source (glucose, raffinose, or galactose) to regulate the expression of the toxic disease protein. An initial starter culture was inoculated in 3 mL CSM-Glucose media and incubated overnight in a 30° C. shaker incubator (225 rpm). Saturated morning cultures were then diluted 1:20 in fresh CSM-Raffinose media and grown for 6 h to an OD600 (optical density) of ˜0.4-0.8 at 30° C. with shaking.
Compound administration was performed in two separate steps. First, 15 μL of CSM-Galactose (induces expression of toxic protein) was dispensed into clear 384 well assay plates using a MULTIDROP™ Combi reagent dispenser. […] The cultures described above were then diluted to a 2× concentration (0.03 and 0.08 for alpha-synuclein and ApoE, final OD600 of 0.015 and 0.04) in CSM-Galactose. For wild-type and Ole1/SCD1/SCD5 plasmid-containing strains, the 2× cell density was 0.02. […] For 96-well assays (FIGS. 1A and 1B), compound dilutions in DMSO were generated in 96 well plates and 1 μL was manually pipetted into 96 well clear bottom assay plates.
For experiments using a plasmid-borne copy of Ole1, SCD1, or SCD5 (FIGS. 3B, 6, and 7), media lacking uracil (SX-Ura, where X is glucose, raffinose, or galactose), was used for all steps of the compound profiling protocol to ensure its maintenance throughout the assay.
After yeast delivery, assay plates were incubated under humidified conditions at 30° C. for 24 to 40 h. ApoE4 rescue experiments were stopped at 24 h, aSyn experiments at 40 h, Ole1 at 24 h, and SCD1/SCD5 at 40 h. The growth of yeast was monitored by reading the OD600 of each well using a microplate reader (Perkin Elmer EnVision™).

| SMILES | IC50 [µM] |
| --- | --- |
| Cc1ccc(-c2nc(C3CCN(C(=O)C4CC(=O)N(c5ccc(C)c(C)c5)C4)CC3)no2)cc1 (stereo not drawn) [Compound 50] | 41 |
| Cn1c(=O)n(C)c2cc(-c3noc(C4CCN(C(=O)[C@@H](CO)NC(=O)c5ccccc5)CC4)n3)ccc21 [Compound 214] | 41 |
| CC(C)n1ncc2cc(-c3noc(C4CCN(C(=O)CNC(=O)c5ccccc5)CC4)n3)ccc21 [Compound 228] | 41 |

Same assay, conditions: humanized yeast expressing human SCD1

| SMILES | IC50 [µM] |
| --- | --- |
| Cc1nn(C)c2cc(-c3noc(N4CCN(C(=O)[C@H]5CC(=O)N(c6ccccc6)C5)CC4)n3)cnc12 [Compound 246] | > 45 |
| N#Cc1ccc(-c2noc(C3CCN(C(=O)[C@H]4CC(=O)N(c5ccccc5)C4)CC3)n2)s1 [Compound 247] | > 45 |
| O=C([C@H]1CC(=O)N(c2ccccc2)C1)N1CCC(c2nc(-c3ccc(Br)s3)no2)CC1 [Compound 248] | > 45 |
| COc1cc(-c2noc(C3CCN(C(=O)CNC(=O)c4ccccc4)CC3)n2)ccc1OC1CC1 [Compound 249] | > 45 |
| Cc1nn(C)c2cc(-c3nsc(C4CCN(C(=O)CNC(=O)c5ccccc5)CC4)n3)ccc12 [Compound 250] | > 45 |
| CNC(=O)c1ccc(-c2noc(C3CCN(C(=O)[C@H]4CC(=O)N(c5ccccc5)C4)CC3)n2)cn1 [Compound 252] | > 45 |
| COc1cc(-c2noc(C3CCN(C(=O)CNC(=O)c4ccccc4)CC3)n2)ccc1OC(F)(F)F [Compound 253] | > 45 |
| Cn1c(=O)n(C)c2cc(-c3noc(C4CCN(C(=O)[C@H]5CC(=O)N(c6ccccn6)C5)CC4)n3)ccc21 [Compound 256] | > 45 |
| Cc1nn(C)c2cc(-c3noc(N4CCN(C(=O)c5ccccc5)CC4)n3)ccc12 [Compound 261] | > 45 |
| Cc1nn(C)c2cc(-c3noc(N4CCN(C(=O)c5ccccc5Cl)CC4)n3)ccc12 [Compound 262] | > 45 |
| Cc1nn(C)c2cc(-c3noc(C4CCN(C(=O)CC(C)(C)C)CC4)n3)ccc12 [Compound 263] | > 45 |
| Cc1nn(C)c2cc(-c3noc(C4CCN(C(=O)COc5ccccc5)CC4)n3)ccc12 [Compound 266] | > 45 |
| Cc1nn(C)c2cc(-c3noc(C4CCN(C(=O)CNC(=O)c5ccc(Cl)cc5)CC4)n3)ccc12 [Compound 269] | > 45 |
| Cc1nn(C)c2cc(-c3noc(N4CCN(C(=O)c5cccc(F)c5)CC4)n3)ccc12 [Compound 270] | > 45 |
| Cc1nn(C)c2cc(-c3noc(C4CCN(C(=O)CNC(=O)c5ccccc5C(F)(F)F)CC4)n3)ccc12 [Compound 271] | > 45 |
| Cc1nn(C)c2cc(-c3noc(C4CCN(C(=O)Oc5ccccc5)CC4)n3)ccc12 [Compound 272] | > 45 |
| COC(=O)N1CCC(c2nc(-c3ccc4c(C)nn(C)c4c3)no2)CC1 [Compound 273] | > 45 |
| COc1ccc(-c2noc(C3CCN(C(=O)CNC(=O)c4ccccc4)CC3)n2)cc1OC(C)C [Compound 274] | > 45 |
| CC(C)n1cc2ccc(-c3noc(C4CCN(C(=O)OC(C)(C)C)CC4)n3)cc2n1 [Compound 277] | > 45 |
| Cc1nn(C)c2cc(-c3noc(N4CCN(C(=O)c5cc(F)ccc5Cl)CC4)n3)ccc12 [Compound 278] | > 45 |
| Cc1nn(C)c2cc(-c3noc(C4CCN(S(=O)(=O)C(C)C)CC4)n3)ccc12 [Compound 279] | > 45 |
| Cc1nn(C)c2cc(-c3noc(C4CCN(C(=O)c5ccccc5)CC4)n3)ccc12 [Compound 280] | > 45 |
| Cc1nn(C)c2cc(-c3noc(C4CCN(C(=O)NC(C)(C)C)CC4)n3)ccc12 [Compound 282] | > 45 |
| Cc1nn(C)c2cc(-c3noc(C4CCN(C(=O)c5cccc(F)c5)CC4)n3)ccc12 [Compound 284] | > 45 |
| CC(C)c1ccc(C(=O)N2CCC(c3nc(C(=O)Nc4cnn(C)c4)no3)CC2)cc1 [Compound 285] | > 45 |
| Cc1nn(C2CC2)c2cc(-c3noc(C4CCN(C(=O)CNC(=O)c5ccccc5)CC4)n3)ccc12 [Compound 286] | > 45 |
| CC(C)c1ccc(C(=O)N2CCC(c3nc(C(=O)Nc4ccnn4C)no3)CC2)cc1 [Compound 287] | > 45 |
